# How the values were obtained:
# [1] = system: mRAR-α (mouse retinoic acid receptor α, expression vector mRAR-αO); experiment: RA-dependent transcriptional transactivation of (TRE₃)₃-tk-CAT reporter in co-transfected HeLa cells (CAT activity); format: cell-based; conditions: same concentrations as RA; data not shown
# Source text: (§1) (mRAR-αO, mRAR-βO and mRAR-γO, respectively) and co-transfected into HeLa cells with a reporter plasmid, (TRE₃)₃-tk-CAT, containing a RA responsive element. […] In Fig. 3 HeLa cells were co-transfected as described in example 2 [Petkovich, M., Brand, N. J., Krust, A. & Chambon, P. Nature 330, 444-450 (1987); Brand, N., Petkovich, M., Krust, A., Chambon, P., de The, H., Marchio, A., Tiollais, P. & Dejean, A. Nature 332, 850-853 (1988)] with pSG5-based expression vectors [Green, S., Issemann, I. & Scheer, E. Nucleic Acids Res. 16, 369 (1988)] containing the entire cDNA of either mRAR-α (mRAR-αO), β (mRAR-βO) or γ (mRAR-γO), and a reporter plasmid, (TRE₃)₃-tk-CAT, carrying a synthetic RA responsive element (RARE). 24 hours after transfection, cells were fed with media containing increasing concentrations of RA as indicated (from 0 to 1x10⁻⁶ M, lanes 1-8, respectively) and harvested 48 hours post-transfection for determination of CAT activity. […] No obvious difference was observed between the dose responsiveness of mRAR-α and β, in contrast with previous results obtained with human chimeric constructs in which the C region of hRAR-α and β was replaced by the corresponding region of the human oestrogen receptor [Brand, N., Petkovich, M., Krust, A., Chambon, P., de The, H., Marchio, A., Tiollais, P. & Dejean, A. Nature 332, 850-853 (1988)]. The reason for these differences is unknown, but may be related to the use of a different and less sensitive responsive element in the present study. Direct determination of the true affinity of RAR-α, β and γ for RA must await direct binding measurements in vitro in the absence of the cellular retinoic acid binding protein.
# (§2) HeLa cells (∼ 10⁶ per dish) were co-transfected with 0.5 µg of a given mRAR expression vector, 2 µg of reporter plasmid and 2 µg of pCH110 (Pharmacia, a β-galactosidase expression vector used as an internal control to normalize for variations in transfection efficiency). The total amount of transfected DNA was adjusted to 20µg by addition of carrier DNA (BSM13+). […]
# [2] = system: mRAR-β (mouse retinoic acid receptor β, expression vector mRAR-βO); experiment: as above; format: cell-based; conditions: same concentrations as RA; data not shown
# Source text: as §1, §2
# [3] = system: mRAR-γ (mouse retinoic acid receptor γ, expression vector mRAR-γO); experiment: as above; format: cell-based; conditions: same concentrations as RA; data not shown
# Source text: as §1, §2
# [4] = system: hRAR-γ (human retinoic acid receptor γ, hRAR-γD cDNA in pSG5 = hRAR-γ0); experiment: RA-dependent transcriptional activation of (TRE₃)₃-tk-CAT reporter by hRAR-γ0 in HeLa cells (CAT activity); format: cell-based; conditions: data not shown
# Experimental: To test the ability of hRAR-γ to activate transcription, hRAR-γD cDNA was subcloned into the eukaryotic expression vector pSG5 [Green, S., Issemann, I. & Scheer, E. Nucleic Acids Res. 16, 369 (1988)] as described in Example 6, to give hRAR-γ0 which was co-transfected into HeLa cells along with a reporter plasmid, (TRE₃)₃-tk-CAT, which contains a synthetic RA responsive element as described in Example 6. The transfected cells were exposed (24 hour post transfection) to increasing concentrations of RA, and RA-induced activation of transcription was evaluated 48 hours after transfection by determining the CAT activity expressed from the reporter gene.
# The entire 1.5 kb insert from the hRAR-γD clone was inserted into the EcoRI site of the eukaryotic expression vector pSG5 [Green, S., Issemann, I. & Scheer, E. Nucleic Acids Res. 16, 369 (1988)], to yield hRAR-γ0. 500 ng of hRAR-γ0 was transfected into HeLa cells along with 2 µg of the (TRE₃)₃-tk-CAT reporter plasmid, 2 µg of a β-galactosidase expressing plasmid pCH110 (to normalize for variations in transfection efficiency) and 15 µg of carrier DNA (BSM13+) as described [Petkovich, M., Brand, N. J., Krust, A. & Chambon, P. Nature 330, 444-450 (1987)]. 24 hours following transfection, the cells were exposed for an additional 24 hour to RA for retinol with concentrations ranging from 10⁻¹¹M to 10⁻⁶. […]
# [5] = system: F9 teratocarcinoma cells; experiment: Northern blot of mRAR RNAs in F9 cells after RA treatment (densitometric scanning); format: cell-based, mouse
Structure (SMILES),transactivation efficiency compared with RA [1],transactivation efficiency compared with RA [2],transactivation efficiency compared with RA [3],potency as activator compared with all-trans or 13-cis retinoic acid [4],"fold induction at 0.33 µM ([5]; Mus musculus, F9, read-out: induction of mRAR-β RNA)","decrease of mRAR-γ RNA ([5]; RA 3.3x10⁻⁷M, 24 and 48 hours) [fold]"
CC1=C(/C=C/C(C)=C/C=C/C(C)=C/CO)C(C)(C)CCC1 [retinol],much less efficient,much less efficient,much less efficient,much less potent activator,,
"CC1=C(/C=C/C(C)=C/C=C/C(C)=C/C(=O)O)C(C)(C)CCC1 [RA, retinoic acid]",,,,,≥ 30,2

# From patent publication EP0683227A1, “Human retinoic acid receptor and genes encoding for it” (INSTITUT NATIONAL DE LA SANTE ET DE LA RECHERCHE MEDICALE …, priority 1989, dated 1991)
